Values joined by “and” are separate entries in the source; they are usually repeats but may differ in a detail not shown here. Equal entries are not always repeated. Where two headings read alike, the source gives them in different places. Blank lines part the entries; values can stand above or below the molecule they belong to.
How the values were obtained:
[1] = molecular target: T1, human M4 muscarinic acetylcholine receptor (hM4R) (Homo sapiens, UniProt P08173); assay: M4 (h) functional GPCR assay, antagonist effect, cAMP HTRF; format: cell-based; conditions: CHO cells, cAMP; read-out: Reference IC50, M4 reference antagonist
T1 construct: host or cells: CHO cells
T1 sequence (P08173 1-479): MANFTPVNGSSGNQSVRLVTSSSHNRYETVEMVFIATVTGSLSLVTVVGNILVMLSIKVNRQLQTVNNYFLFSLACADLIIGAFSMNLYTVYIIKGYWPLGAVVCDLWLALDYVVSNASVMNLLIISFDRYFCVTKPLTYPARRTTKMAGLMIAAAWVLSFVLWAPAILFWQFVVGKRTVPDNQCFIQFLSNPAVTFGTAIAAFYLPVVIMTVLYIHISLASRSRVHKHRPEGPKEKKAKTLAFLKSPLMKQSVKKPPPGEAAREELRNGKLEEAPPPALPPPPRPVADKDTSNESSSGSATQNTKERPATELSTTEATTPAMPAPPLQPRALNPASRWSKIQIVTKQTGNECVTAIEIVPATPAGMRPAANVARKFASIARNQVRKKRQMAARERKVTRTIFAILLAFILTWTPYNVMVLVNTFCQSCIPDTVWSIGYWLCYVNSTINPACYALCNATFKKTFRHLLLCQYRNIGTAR
Description: The cellular and nuclear receptor functional assays were carried out at Eurofins Cerep (Le Bois I’ Eveque, France) following the in-house protocols (catalog items G029-1262, G029-1474, G030-1658, G030-1659, G031-1243, G031-1244, G032-1670, G032-1671, G033-4217, and G033-4212). The experimental methods for the assays were as described in the previous reports and the general methodology is summarized in the Supplementary Information Table S1. Recombinant human Chinese hamster ovary (CHO) cells and rat basophilic leukemic (RBL) cells were transfected with the GPCR genes of interest (hM1R, hM2R, hM3R, hM4R, and hM5R). The functional assay provided the readouts based on the measurements of calcium ion mobilization (for the Gαq/11-coupled receptors) and cAMP level (for the Gαi/o-coupled receptors).
Stable CHO cells expressing the transfected cDNA of human M2 receptors were suspended in a medium containing HBSS buffer complemented with 20-mM HEPES buffer (pH 7.4) and 500-µM IBMX, whereas the stable human M4 receptor cloned CHO cells were distributed in HBSS buffer with 20-mM HEPES/NaOH (pH 7.4), 70-mM NaCl, 5.33-mM KCl, 1.25-mM CaCl2, 0.5-mM MgCl2, 0.41-mM MgSO4, 0.441-mM KH2PO4, 0.3-mM Na2HPO4, 0.1% glucose, and 500-µM IBMX. […] The cAMP level was calculated as the ratio of the signal measured at 665 nm to that measured at 620 nm. […]
Assay Source Stimulus Incubation Measured Detection References […]

[2] = test system: recombinant human MAO-A (hMAO-A); parameters: method as in earlier work; conditions: ref 27 (Dittman et al., 2004); read-out: IC50, recombinant human MAO-A (literature); cited from earlier work
[3] = molecular target: T2, recombinant human monoamine oxidase A (hMAO-A) (Homo sapiens, UniProt P21397); assay: hMAO-A inhibition, MAO-Glo chemiluminescent assay; format: biochemical; conditions: for IC50: mean ± SD of triplicate experiments; for SI (selectivity index): ratio of the IC50 value for hMAO-A inhibition to that for hMAO-B inhibition
T2 sequence (P21397 1-527): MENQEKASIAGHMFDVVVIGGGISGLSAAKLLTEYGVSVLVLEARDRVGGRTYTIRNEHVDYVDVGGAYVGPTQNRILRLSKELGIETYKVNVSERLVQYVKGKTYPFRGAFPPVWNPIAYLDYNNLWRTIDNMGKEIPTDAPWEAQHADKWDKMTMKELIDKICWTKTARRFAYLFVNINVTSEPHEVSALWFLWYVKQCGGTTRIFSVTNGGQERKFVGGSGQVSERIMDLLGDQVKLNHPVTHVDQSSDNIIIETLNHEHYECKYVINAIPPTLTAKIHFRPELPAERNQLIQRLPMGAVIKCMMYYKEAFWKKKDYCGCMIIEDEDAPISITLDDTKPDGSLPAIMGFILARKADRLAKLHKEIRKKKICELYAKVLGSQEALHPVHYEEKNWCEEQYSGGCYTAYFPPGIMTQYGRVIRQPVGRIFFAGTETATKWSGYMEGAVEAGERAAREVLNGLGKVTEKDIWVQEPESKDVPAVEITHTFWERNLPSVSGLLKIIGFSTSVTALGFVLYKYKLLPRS

[4] = molecular target: T3, recombinant human monoamine oxidase B (hMAO-B) (Homo sapiens, UniProt P27338); assay: hMAO-B inhibition, MAO-Glo chemiluminescent assay; format: biochemical; conditions: mean ± SD of triplicate experiments
T3 sequence (P27338 1-520): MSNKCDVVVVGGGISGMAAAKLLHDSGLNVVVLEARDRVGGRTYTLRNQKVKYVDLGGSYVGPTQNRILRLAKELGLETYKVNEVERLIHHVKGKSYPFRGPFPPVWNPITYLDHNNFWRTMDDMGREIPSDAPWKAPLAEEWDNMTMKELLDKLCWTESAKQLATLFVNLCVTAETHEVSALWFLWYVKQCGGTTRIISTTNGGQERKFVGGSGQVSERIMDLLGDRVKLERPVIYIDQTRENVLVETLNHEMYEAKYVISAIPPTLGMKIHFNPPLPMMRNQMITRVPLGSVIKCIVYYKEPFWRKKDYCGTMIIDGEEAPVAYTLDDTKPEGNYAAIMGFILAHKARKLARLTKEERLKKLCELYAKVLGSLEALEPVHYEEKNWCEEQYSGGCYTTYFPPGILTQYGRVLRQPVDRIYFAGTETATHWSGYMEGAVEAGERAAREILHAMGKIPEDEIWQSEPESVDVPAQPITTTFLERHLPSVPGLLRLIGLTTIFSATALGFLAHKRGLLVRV

[5] = molecular target: T2, recombinant human monoamine oxidase A (hMAO-A); assay: hMAO-A enzyme kinetics (Lineweaver-Burk, Dixon, secondary plots); format: biochemical; conditions: for Inhibition Type, hMAO-A: Lineweaver-Burk and Dixon plots; for Ki: from secondary plots
[6] = molecular target: T3, recombinant human monoamine oxidase B (hMAO-B); assay: hMAO-B enzyme kinetics (Lineweaver-Burk, Dixon, secondary plots); format: biochemical; conditions: for Inhibition Type, hMAO-B: Lineweaver-Burk and Dixon plots; for Ki: from secondary plots

IC50 [1]: 36 nM
Compound: CCOC(=O)c1c(C)[nH]c2ccc3c(c12)CN1CCc2cc(OC)ccc2C1O3 (stereo not shown) [PD 102807, reference compound]

Compound: Cc1cccc2c3c(ccc12)C1=C(C(=O)C3=O)[C@@H](C)CO1 [Dtan I, dihydrotanshinone I, reference compound]
IC50 [2]: 23 µM

IC50 ([3]; read-out: IC50, hMAO-A): < 10 µM and 6.08 µM
SI (selectivity index) [3]: 0.35
IC50 [4]: < 25 µM and 17.5 µM
Inhibition Type, hMAO-A [5]: Mixed
Inhibition Type, hMAO-A ([5]; listed as 2): mixed-mode
Ki ([5]; read-out: Kic, hMAO-A): 0.72 ± 0.13 µM
Ki ([5]; read-out: Kiu, hMAO-A): 2.74 ± 0.37 µM
Inhibition Type, hMAO-B [6]: Non-competitive
Inhibition Type, hMAO-B ([6]; listed as 2): noncompetitive inhibition
Ki ([6]; read-out: Kic, hMAO-B): 12.9 ± 1.14 µM
Ki ([6]; read-out: Kiu, hMAO-B): 13.7 ± 0.58 µM
Compound: Cc1coc2c1C(=O)C(=O)c1c-2ccc2c1CCCC2(C)C [Tanshinone IIA]
IC50 [2]: > 400 µM

Compound: C[C@H]1COC2=C1C(=O)C(=O)c1c2ccc2c1CCCC2(C)C [Cryptotanshinone]
IC50 ([3]; IC50, hMAO-A): < 10 µM and 8.7 µM
SI (selectivity index) [3]: 0.38
IC50 [4]: 23.1 ± 2.1 µM
Ki ([5]; Kic, hMAO-A): 4.99 ± 0.34 µM
Ki ([5]; Kiu, hMAO-A): 38.1 ± 1.79 µM
Inhibition Type, hMAO-A [5]: Mixed
Inhibition Type, hMAO-A ([5]; listed as 3): mixed-mode
Ki ([6]; Kic, hMAO-B): 9.33 ± 0.1 µM
Inhibition Type, hMAO-B [6]: Competitive
Inhibition Type, hMAO-B ([6]; listed as 3): competitive enzyme inhibition
IC50 [2]: 84 µM

From PMC8301926 (Biomolecules, 2021)
